# In BindingDB's records for doi:10.1016/j.str.2004.01.005 (University of Dundee, 2004):
# pIC50: −log10 of the molar value.
# How the values were obtained:
# Test in all cases: PDK1 Kinase Activity Assay
# Settings in all cases: pH 7.5; 30 °C
# [1] = biological target: T1, 3-phosphoinositide-dependent protein kinase 1 [51-359] (Human, UniProt O15530)
# T1 construct: 51-359
# T1 sequence (O15530 whole entry): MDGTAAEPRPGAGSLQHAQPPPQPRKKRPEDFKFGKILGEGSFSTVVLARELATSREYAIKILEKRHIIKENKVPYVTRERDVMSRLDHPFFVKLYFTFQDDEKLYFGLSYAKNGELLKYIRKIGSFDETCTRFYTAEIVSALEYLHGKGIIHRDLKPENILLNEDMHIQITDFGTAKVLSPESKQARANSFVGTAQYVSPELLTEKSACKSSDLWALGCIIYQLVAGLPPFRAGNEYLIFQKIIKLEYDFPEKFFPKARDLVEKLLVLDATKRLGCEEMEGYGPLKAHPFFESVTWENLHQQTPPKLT
# [2] = biological target: T2, 3-phosphoinositide-dependent protein kinase 1 [51-359,V143T] (Homo sapiens, UniProt O15530, V143T)
# T2 construct: 51-359
# [3] = biological target: T3, 3-phosphoinositide-dependent protein kinase 1 [51-359,A162V] (Homo sapiens, UniProt O15530, A162V)
# T3 construct: 51-359
# [4] = biological target: T4, 3-phosphoinositide-dependent protein kinase 1 [51-359,V143T,T222A] (Homo sapiens, UniProt O15530, T222A/V143T)
# T4 construct: 51-359
# [5] = biological target: T5, 3-phosphoinositide-dependent protein kinase 1 [51-359,T222A] (Homo sapiens, UniProt O15530, T222A)
# T5 construct: 51-359
# [6] = biological target: T6, 3-phosphoinositide-dependent protein kinase 1 [51-359,E166D] (Homo sapiens, UniProt O15530, E166D)
# T6 construct: 51-359
# [7] = biological target: T7, 3-phosphoinositide-dependent protein kinase 1 [51-359,L159M] (Homo sapiens, UniProt O15530, L159M)
# T7 construct: 51-359
# T7 sequence (O15530 51-359 L159M): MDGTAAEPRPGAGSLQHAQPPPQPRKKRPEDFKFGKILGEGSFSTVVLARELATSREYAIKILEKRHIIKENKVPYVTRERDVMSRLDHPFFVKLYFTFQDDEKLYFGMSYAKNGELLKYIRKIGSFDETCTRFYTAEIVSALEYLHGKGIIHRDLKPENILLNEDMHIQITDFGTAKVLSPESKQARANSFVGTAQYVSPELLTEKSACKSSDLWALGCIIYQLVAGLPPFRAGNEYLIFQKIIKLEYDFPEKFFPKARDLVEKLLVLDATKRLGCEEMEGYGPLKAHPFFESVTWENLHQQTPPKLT
# T4 sequence (O15530 51-359 V143T/T222A): as the sequence (O15530 51-359 L159M) above, with V93T, M109L, T172A counted along it
# T6 sequence (O15530 51-359 E166D): as the sequence (O15530 51-359 L159M) above, with M109L, E116D counted along it
# T3 sequence (O15530 51-359 A162V): as the sequence (O15530 51-359 L159M) above, with M109L, A112V counted along it
# T5 sequence (O15530 51-359 T222A): as the sequence (O15530 51-359 L159M) above, with M109L, T172A counted along it
# T2 sequence (O15530 51-359 V143T): as the sequence (O15530 51-359 L159M) above, with V93T, M109L counted along it
Compound,pIC50 [1],pIC50 [2],pIC50 [3],pIC50 [4],pIC50 [5],pIC50 [6],pIC50 [7]
CN(C)CCCn1cc(C2=C(c3c[nH]c4ccccc34)C(=O)NC2=O)c2ccccc21 [2-[1-(3-dimethylaminopropyl)-indol-3-yl]-3-(indol-3-yl)maleimide],5.05,,,,,,
"CN1CCCC1CCn1cc(C2=C(c3c[nH]c4ccccc34)C(=O)NC2=O)c2ccccc21 (stereo not given) [3-(1H-indol-3-yl)-4-{1-[2-(1-methylpyrrolidin-2-yl)ethyl]-1H-indol-3-yl}-2,5-dihydro-1H-pyrrole-2,5-dione]",4.85,,,,,,
NCCCn1cc(C2=C(c3c[nH]c4ccccc34)C(=O)NC2=O)c2ccccc21 [Bisindolyl deriv. 19],5.40,5.60,5.47,5.70,5.42,5.24,5.52
Cn1cc(C2=C(c3cn(CCCN)c4ccccc34)C(=O)NC2=O)c2ccccc21 [Ro 31-7549],6.00,,,,,,
